From patent US9040518B2, “Chemical compounds” (GlaxoSmithKline LLC, priority 2010, dated 2015) come the findings set out here.

Molecules are shown by their SMILES. Counter-ions that a name gives are not always drawn.

Sequence of ileal bile acid cotransporter (iBAT) (Q12908 whole entry): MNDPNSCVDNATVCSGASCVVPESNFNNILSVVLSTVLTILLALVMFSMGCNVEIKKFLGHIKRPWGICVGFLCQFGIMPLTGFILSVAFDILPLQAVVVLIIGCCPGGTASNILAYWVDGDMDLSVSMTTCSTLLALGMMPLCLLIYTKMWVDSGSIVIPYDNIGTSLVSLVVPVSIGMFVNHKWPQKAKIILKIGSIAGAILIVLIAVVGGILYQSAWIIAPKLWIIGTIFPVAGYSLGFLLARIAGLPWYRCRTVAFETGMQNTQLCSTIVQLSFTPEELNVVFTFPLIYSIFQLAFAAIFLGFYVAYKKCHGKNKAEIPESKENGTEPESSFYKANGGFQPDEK

This experiment has as its target ileal bile acid cotransporter (iBAT) (Homo sapiens (Human), UniProt Q12908). Description: Human iBAT inhibition: [3H]-taurocholate uptake into HEK293 cells expressing human iBAT. Format: cell-based. To be noted: HEK293 cells transduced with human iBAT Bacmam virus, 90 minutes at ambient temperature, mean of at least 2 datapoints. As for the experimental part: Method for Determination of Human iBAT Inhibition:
In preparation for measurement of bile acid uptake into cells expressing the ileal bile acid cotransporter (iBAT), HEK293 cells were cultured in DMEM/F12 supplemented with 10% FBS. Twenty four hours prior to running an experiment, cells were harvested when at a confluence of 80-90%. Cells were seeded in poly-d-lysine coated plates at 50,000 cells per well, and human iBAT Bacmam virus was added such that each well contains 3.67×10e6 pfu (73.4pfu/cell). Each assay plate was covered with Breathe Easy Seal and placed in an incubator for 24 hours to allow expression of the transporter.
On the day of the uptake experiment, 10 mM HEPES was added to Hank's Balanced Salt Solution, and the pH was adjusted to 7.4 with TRIS (HBSSH). The assay buffer was prepared by adding […] [^3H]-taurocholate and 10 μM cold taurocholate to room temperature HBSSH. A separate washing buffer was prepared by adding 10 μM cold taurocholate to HBSSH (˜30 ml per assay plate) and placed on ice. Using 100% DMSO, 8 point, 3-fold dilution curves for each test compound was prepared starting at 200 μM. Similarly, an 8 point dose response curve was prepared of the control compound [(3R,5R)-3-butyl-3-ethyl-7,8-bis(methyloxy)-5-phenyl-2,3,4,5-tetrahydro-1,4-benzothiazepine 1,1-dioxide (Brieaddy, L. E. WO9605188, 1996)] starting at 1.8 mM. Drug plates were created by adding 3 μL of each concentration to a v-bottom 96-well plate then diluted 60-fold with 177 μL of assay buffer. Plates were removed from the incubator and allowed to cool to ambient temperature. Media was aspirated, and wells were washed once with 300 μL HBSSH. 50 μL of each dose response curve concentration was added in triplicate by column to the assay plates, reserving column 10 for control (assay buffer+1.67% DMSO) and columns 11 and 12 for the control compound. Plates were incubated at ambient temperature for 90 minutes then the plates were aspirated then washed 1× with 300 μL of wash buffer. 220 μL of Microscint 20 was added to each well, and the plates were sealed. The amount of [^3H]-taurocholate in cell lysate was quantitated using a microplate scintillation counter on the following day.
IC50's can be generated using the formula, y=(Vmax*x^n)/(K^n+x^n).
With `CCCC[C@]1(CC)CS(=O)(=O)c2cc(CP(=O)(O)O)c(OC)cc2[C@@H](c2ccccc2)N1` [Example 6, {[(3R,5R)-3-butyl-3-ethyl-7-(methyloxy)-1,1-dioxido-5-phenyl-2,3,4,5-tetrahydro-1,4-benzothiazepin-8-yl]methyl}phosphonic acid hydrochloride salt], half-maximal inhibition (IC50) required 23 nM.

The compound `CCCC[C@]1(CC)CS(=O)(=O)c2cc(CNC(=O)CNCCP(=O)(O)O)c(OC)cc2[C@@H](c2ccccc2)N1` [Example 40, (2-{[2-({[(3R,5R)-3-butyl-3-ethyl-7-(methyloxy)-1,1-dioxido-5-phenyl-2,3,4,5-tetrahydro-1,4-benzothiazepin-8-yl]methyl}amino)-2-oxoethyl]amino}ethyl)phosphonic acid trifluoroacetate salt] gave an IC50 of 4670 nM.

As to `CCCC[C@]1(CC)CS(=O)(=O)c2cc(CNC(CC(=O)O)CC(=O)O)c(OC)cc2[C@H](c2ccccc2)N1` [Example 43, 3-({[(3R,5S)-3-butyl-3-ethyl-7-(methyloxy)-1,1-dioxido-5-phenyl-2,3,4,5-tetrahydro-1,4-benzothiazepin-8-yl]methyl}amino)pentanedioic acid], 7680 nM corresponded to half-maximal inhibition (IC50).

On to `CCCC[C@]1(CC)CS(=O)(=O)c2cc(CN3CCCC3=O)c(OC)cc2[C@@H](c2ccccc2)N1` [Example 31, 1-{[(3R,5R)-3-butyl-3-ethyl-7-(methyloxy)-1,1-dioxido-5-phenyl-2,3,4,5-tetrahydro-1,4-benzothiazepin-8-yl]methyl}-2-pyrrolidinone trifluoroacetate salt], for which half-maximal inhibition (IC50) was put at 407 nM.

For the compound `CCCC[C@]1(CC)CS(=O)(=O)c2cc(CNC(=O)CCS(=O)(=O)O)c(OC)cc2[C@@H](c2ccccc2)N1` [Example 42, 3-({[(3R,5R)-3-butyl-3-ethyl-7-(methyloxy)-1,1-dioxido-5-phenyl-2,3,4,5-tetrahydro-1,4-benzothiazepin-8-yl]methyl}amino)-3-oxo-1-propanesulfonic], the IC50 was found to be 128 nM.

Compound `CCCC[C@]1(CC)CS(=O)(=O)c2cc(CP(=O)(O)O)c(OC)cc2[C@H](c2ccccc2)N1` [Example 45, {[(3R,5S)-3-butyl-3-ethyl-7-(methyloxy)-1,1-dioxido-5-phenyl-2,3,4,5-tetrahydro-1,4-benzothiazepin-8-yl]methyl}phosphonic acid trifluoroacetate salt] yielded an IC50 of 1950 nM.

The compound `CCCC[C@]1(CC)CS(=O)(=O)c2cc(CNCP(=O)(O)O)c(OC)cc2[C@@H](c2ccccc2)N1` [Example 62, [({[(3R,5R)-3-butyl-3-ethyl-7-(methyloxy)-1,1-dioxido-5-phenyl-2,3,4,5-tetrahydro-1,4-benzothiazepin-8-yl]methyl}amino)methyl]phosphonic acid trifluoroacetate salt] yielded an IC50 of 3900 nM.

Regarding `CCCC[C@]1(CC)CS(=O)(=O)c2cc(CN(CP(=O)(O)O)CP(=O)(O)O)c(OC)cc2[C@@H](c2ccccc2)N1` [Example 60, [({[(3R,5R)-3-butyl-3-ethyl-7-(methyloxy)-1,1-dioxido-5-phenyl-2,3,4,5-tetrahydro-1,4-benzothiazepin-8-yl]methyl}imino)dimethanediyl]bis(phosphonic acid) tetraammonium salt], the IC50 was determined as 3330 nM.

Take `CCCC[C@]1(CC)CS(=O)(=O)c2cc(CN(C)CCC(=O)O)c(OC)cc2[C@@H](c2ccccc2)N1` [Example 29, N-{[(3R,5R)-3-butyl-3-ethyl-7-(methyloxy)-1,1-dioxido-5-phenyl-2,3,4,5-tetrahydro-1,4-benzothiazepin-8-yl]methyl}-N-methyl-β-alanine trifluoroacetate salt]: the IC50 was determined as 367 nM.

`CCCC[C@]1(CC)CS(=O)(=O)c2cc(CNCCS(=O)(=O)O)c(OC)cc2[C@@H](c2ccccc2)N1` [Example 35, 2-({[(3R,5R)-3-butyl-3-ethyl-7-(methyloxy)-1,1-dioxido-5-phenyl-2,3,4,5-tetrahydro-1,4-benzothiazepin-8-yl]methyl}amino)ethanesulfonic acid ammonium salt] gave an IC50 of 54 nM.

Compound `CCCC[C@]1(CC)CS(=O)(=O)c2cc(CN(CP(=O)(O)O)CP(=O)(O)OCC)c(OC)cc2[C@@H](c2ccccc2)N1` [Example 61, [({[(3R,5R)-3-butyl-3-ethyl-7-(methyloxy)-1,1-dioxido-5-phenyl-2,3,4,5-tetrahydro-1,4-benzothiazepin-8-yl]methyl}{[(ethyloxy)(hydroxy)phosphoryl]methyl}amino)methyl]phosphonic acid triammonium salt] displayed an IC50 of 3360 nM.

With `CCCC[C@]1(CC)CS(=O)(=O)c2cc(C(N)=O)c(OC)cc2[C@@H](c2ccccc2)N1` [Example 8, (3R,5R)-3-butyl-3-ethyl-7-(methyloxy)-5-phenyl-2,3,4,5-tetrahydro-1,4-benzothiazepine-8-carboxamide-1,1-dioxide], the IC50 amounted to 73 nM.

Turning to `CCCCC1(CCCC)CS(=O)(=O)c2cc(CNCC(=O)O)c(OC)cc2C(c2ccccc2)N1` (stereo not shown) [Example 66, N-{[3,3-dibutyl-7-(methyloxy)-1,1-dioxido-5-phenyl-2,3,4,5-tetrahydro-1,4-benzothiazepin-8-yl]methyl}glycine trifluoroacetate salt], the IC50 was found to be 21 nM.

Consider `CCCC[C@]1(CC)CS(=O)(=O)c2cc(CCC(=O)O)c(OC)cc2[C@@H](c2ccccc2)N1` [Example 10, 3-[(3R,5R)-3-butyl-3-ethyl-7-(methyloxy)-1,1-dioxido-5-phenyl-2,3,4,5-tetrahydro-1,4-benzothiazepin-8-yl]propanoic acid], for which the IC50 was 17 nM.

The compound `CCCC[C@]1(CC)CS(=O)(=O)c2cc(CNCC(=O)O)c(OC)cc2[C@H](c2ccccc2)N1` [Example 44, N-{[(3R,5S)-3-butyl-3-ethyl-7-(methyloxy)-1,1-dioxido-5-phenyl-2,3,4,5-tetrahydro-1,4-benzothiazepin-8-yl]methyl}glycine trifluoroacetate salt] came in with an IC50 of 648 nM.

`CCCC[C@]1(CC)CS(=O)(=O)c2cc(CNC(=O)CNC(CC(=O)O)CC(=O)O)c(OC)cc2[C@@H](c2ccccc2)N1` [Example 41, 3-{[2-({[(3R,5R)-3-butyl-3-ethyl-7-(methyloxy)-1,1-dioxido-5-phenyl-2,3,4,5-tetrahydro-1,4-benzothiazepin-8-yl]methyl}amino)-2-oxoethyl]amino}pentanedioic acid trifluoroacetate salt] had an IC50 of 3330 nM.

For `CCCC[C@]1(CC)CS(=O)(=O)c2cc(C(CC(=O)O)CC(=O)O)c(OC)cc2[C@@H](c2ccccc2)N1` [Example 72, 3-[(3R,5R)-3-butyl-3-ethyl-7-(methyloxy)-1,1-dioxido-5-phenyl-2,3,4,5-tetrahydro-1,4-benzothiazepin-8-yl]pentanedioic acid], the IC50 was over 3000 nM.

Regarding `CCCC[C@]1(CC)CS(=O)(=O)c2cc(C(=O)NCS(=O)(=O)O)c(OC)cc2[C@@H](c2ccccc2)N1` [Example 2, ({[(3R,5R)-3-butyl-3-ethyl-7-(methyloxy)-1,1-dioxido-5-phenyl-2,3,4,5-tetrahydro-1,4-benzothiazepin-8-yl]carbonyl}amino)methanesulfonic acid], 11 nM corresponded to half-maximal inhibition (IC50).

Consider `CCCC[C@]1(CC)CS(=O)(=O)c2cc(CN(C)CC(=O)O)c(OC)cc2[C@@H](c2ccccc2)N1` [Example 49, N-{[(3R,5R)-3-butyl-3-ethyl-7-(methyloxy)-1,1-dioxido-5-phenyl-2,3,4,5-tetrahydro-1,4-benzothiazepin-8-yl]methyl}-N-methylglycine ammonium salt], for which the IC50 was determined as 41 nM.

`CCCCC1(CCCC)CS(=O)(=O)c2cc(CNC(CC(=O)O)CC(=O)O)c(OC)cc2C(c2ccccc2)N1` (stereo not shown) [Example 65, 3-({[3,3-dibutyl-7-(methyloxy)-1,1-dioxido-5-phenyl-2,3,4,5-tetrahydro-1,4-benzothiazepin-8-yl]methyl}amino)pentanedioic acid trifluoroacetate salt]: the IC50 was determined as 337 nM.

Turning to `CCCC[C@]1(CC)CS(=O)(=O)c2cc(CNCC(=O)O)c(OC)cc2[C@@H](c2ccccc2)N1O` [Example 46, N-{[(3R,5R)-3-butyl-3-ethyl-4-hydroxy-7-(methyloxy)-1,1-dioxido-5-phenyl-2,3,4,5-tetrahydro-1,4-benzothiazepin-8-yl]methyl}glycine], the IC50 was determined as 2 nM.

Take `CCCC[C@]1(CC)CS(=O)(=O)c2cc(CCP(=O)(O)O)c(OC)cc2[C@@H](c2ccccc2)N1` [Example 51, {2-[(3R,5R)-3-butyl-3-ethyl-7-(methyloxy)-1,1-dioxido-5-phenyl-2,3,4,5-tetrahydro-1,4-benzothiazepin-8-yl]ethyl}phosphonic acid bis-ammonium salt]: the IC50 amounted to 51 nM.

Usually IC50 stands for the concentration at which inhibition is half-maximal. A low value points to higher potency.
